# Measurements taken from patent US11389460B2, “Methods and compositions for treating endometrial cancer” (City of Hope, priority 2017, dated 2022).
# Where two headings read alike, the source gives them in different places.
# What was measured:
# HEC-1A xenograft = HEC-1A xenograft mouse model; type: in vivo, nude mice; conditions: oral gavage daily, 5 weeks; Pterostilbene 30 mg/kg, megestrol acetate 10 mg/kg, or both; versus vehicle
# Protocol: Animal models. All animal studies were carried out under protocols approved by the Institutional Animal Care and Use Committee (IACUC) at City of Hope in accordance with all applicable federal, state, and local requirements and institutional guidelines. HEC-1A cells (2×10^6 in 100 μl) were inoculated subcutaneously into the right flank of 6- to 8-week-old female nude mice. Once the tumors were palpable, animals were randomized into groups of 10 to achieve an equal distribution of tumor sizes in all treatment groups. Mice were then treated by oral gavage daily with vehicle, Pterostilbene (30 mg/kg), megestrol acetate (10 mg/kg), or a combination of both agents. The doses for these two drugs were chosen based on previously published studies. Tumor volumes were assessed using calipers twice a week. Tumor volumes were determined using the formula (Width)^2×Length×0.52. Body weight was monitored weekly as an indicator of drug-induced toxicity and overall health of the mice.
# Statistical analysis. Data are presented as mean±S.D. Student's t-test was used to compare the means of two groups. All the experiments were repeated 2 to 4 times. P<0.05 was considered statistically significant.
# [1] = recent clinical trial; cited from earlier work
# HEC-1A cells = assay: Cell viability assay (MTS / acid phosphatase), combination index by Chou-Talalay; type: cell-based; conditions: Homo sapiens, read-out: IC50 (concentration for 50% growth inhibition), pterostilbene alone, 48 h, one range printed for both cell lines
# Protocol: (§1) Cell Culture. Human endometrial cancer cell lines HEC-1A and ECC-1 cells were from American Type Culture Collection (Rockville, Md.). […] All cells were grown in 5% (v/v) CO2 at 37° C.
# (§2) Cell viability assays. Cells (4000 per well) were plated in 96-well plate format in 100 μl growth medium. Cells were treated with DMSO or drugs the next day at the indicated concentrations and incubated for an additional 2-3 days. Viable cells were determined either by the MTS assay (Promega, Madison, Wis., USA) or the acid phosphatase assay^53,54. For the MTS assay, 25 μl MTS solution was added directly into each well according to the manufacturer's instructions. For the acid phosphatase assay, all the media was removed and p-nitrophenyl phosphate substrate (10 mM 100 μl) was added into each well and incubated at 37° C. for 45 mins. […] The IC50 was determined using the Calcusyn software (Biosoft, Ferguson, Mo.).
# (§3) Determination of combination index (CI). The combination index (CI) was determined using the Chou-Talalay method^37 using the Calcusyn software (Biosoft, MO).
# ECC-1 cells = assay: as above; type: cell-based; conditions: Homo sapiens, ECC-1, read-out: IC50 (concentration for 50% growth inhibition), pterostilbene alone, 48 h, one range printed for both cell lines
# Protocol: as §1, §2, §3
# [2] = compared to Resveratrol; cited from earlier work
# [3] = system: p-STAT3, p-AKT, p-ERK and ER-α; assay: Western blot of cell signaling molecules in HEC-1A cells; type: cell-based, Human; conditions: 24 h, single agents at various concentrations, combination 75 μM each
# Protocol: (§4) Western blot analysis. Western blots were performed as described previously^55,56 Cells were grown in complete medium overnight and treated with DMSO or drugs at various concentrations for 24 hrs. Cells were washed in cold PBS and lysed in RIPA lysis buffer (Thermo Scientific) containing Halt protease and phosphatase inhibitors (Thermo Scientific). Proteins were quantified using BCA protein assay reagent (Thermo Scientific). Equal amounts of protein were separated by SDS-polyacrylamide gel electrophoresis, transferred to polyvinylidene fluoride membranes and incubated with total and phosphorylated protein-specific antibodies. Binding of the primary antibody was detected using a horseradish peroxidase (HRP)-conjugated secondary antibody and chemiluminescent substrates (Thermo Scientific).
# [4] = system: cell survival molecules and cell cycle molecules (caspase 3, PARP, BCL-2, BCL-xl, cyclin D1, cyclin B1, CDK4); assay: Western blot of cell survival and cell cycle molecules in HEC-1A cells; type: cell-based, Human; conditions: 24 h, single agents at various concentrations, combination 75 μM each
# Protocol: as §4
# [5] = system: advanced stage/recurrent endometrial cancer; conditions: advanced stage / metastatic and recurrent endometrial cancer patients, cited from earlier work
Compound,Tumor growth reduction (tumor volume and tumor weight) (HEC-1A xenograft),Dose generally safe for use in humans [1],IC50 (HEC-1A cells),IC50 (ECC-1 cells),Bioavailability [2],ER expression [3],Expression of p-ERK1/2 [3],Expression of p-STAT3 and p-AKT [3],Cleavage of caspase 3 [4],Expression of BCL-2 and BCL-xl [4],"Expression of cyclin D1, cyclin B1 and CDK4 [4]",Response rate [5],Response rate ([5]; listed as MA)
COc1cc(/C=C/c2ccc(O)cc2)cc(OC)c1 [pterostilbene],non-significant,up to 250 mg/day,72 to 78 µM,72 to 78 µM,superior bioavailability as compared to Resveratrol,slightly decreased,no significant effect,no significant effect,increased cleavage,decrease,inhibited,–,–
megestrol acetate [reference compound],non-significant,–,–,–,–,did not significantly alter,did not significantly alter,did not significantly alter,little effect,little effect,little impact,20-30%,25-30%
